Assay [1] has as its target T1, 5-HT2A receptor (Homo sapiens, UniProt P28223).
T1 construct: purchased PerkinElmer
The assay can be described thus: Radioligand binding assay, serotoninergic 5-HT2A receptors. As to conditions: binding assay result in %, Table 5a. The gist of the method:
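Competition curves from scintillation-counted specific binding (total minus binding with excess unlabelled ligand) were Hill-fitted to give IC50, converted to Ki via Cheng-Prusoff using Scatchard-derived Kd.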

The target of assay [2] is T2, 5-HT6 receptor (Homo sapiens, UniProt P50406).
T2 construct: purchased PerkinElmer
T2 sequence (P50406 whole entry): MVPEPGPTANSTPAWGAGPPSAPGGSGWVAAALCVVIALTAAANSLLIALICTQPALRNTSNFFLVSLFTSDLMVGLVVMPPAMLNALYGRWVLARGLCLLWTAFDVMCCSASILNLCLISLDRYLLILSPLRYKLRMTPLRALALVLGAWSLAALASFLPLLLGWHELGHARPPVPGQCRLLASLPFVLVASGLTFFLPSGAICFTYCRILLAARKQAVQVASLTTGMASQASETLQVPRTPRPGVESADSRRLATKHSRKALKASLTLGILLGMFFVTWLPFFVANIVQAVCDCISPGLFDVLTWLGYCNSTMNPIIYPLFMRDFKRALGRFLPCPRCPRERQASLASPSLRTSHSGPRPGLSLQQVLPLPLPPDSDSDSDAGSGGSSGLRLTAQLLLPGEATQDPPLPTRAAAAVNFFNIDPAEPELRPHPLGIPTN
The assay can be described thus: Radioligand binding assay, serotoninergic 5-HT6 receptors.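 Note: test compound at 1 µM.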 As to conditions: binding assay result in %, Table 5a. The gist of the method: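 Values are Ki from Cheng–Prusoff, taking IC50 from Hill nonlinear regression of competition curves and KD from a Scatchard plot. Specific binding was total minus binding with excess unlabelled ligand. Radioligand displacement was detected by scintillation counting, and data were also reported as percent of control specific binding.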

For assay [3], the target named is T3, 5-HT1A receptor (rat hippocampus) (Rattus norvegicus, UniProt P19327).
T3 construct: hippocampus; from tissue; host or cells: rat hippocampus
T3 sequence (P19327 1-422): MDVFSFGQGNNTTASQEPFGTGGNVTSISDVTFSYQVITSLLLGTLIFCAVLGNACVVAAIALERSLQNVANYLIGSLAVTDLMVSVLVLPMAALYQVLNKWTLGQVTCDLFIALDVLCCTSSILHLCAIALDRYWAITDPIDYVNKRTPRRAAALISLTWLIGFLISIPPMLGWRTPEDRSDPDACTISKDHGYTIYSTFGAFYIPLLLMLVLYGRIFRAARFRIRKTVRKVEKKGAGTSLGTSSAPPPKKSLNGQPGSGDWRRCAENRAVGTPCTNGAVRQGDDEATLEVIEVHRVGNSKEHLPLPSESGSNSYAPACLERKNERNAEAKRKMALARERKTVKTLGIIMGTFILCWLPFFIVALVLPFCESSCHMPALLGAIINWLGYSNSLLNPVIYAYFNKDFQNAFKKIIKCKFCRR
The assay can be described thus: Radioligand binding assay, serotoninergic 5-HT1A receptors.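 Note: test compound at 1 µM.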 As to conditions: binding assay result in %, Table 5a.

In assay [4] the target is dopaminergic receptors D3 (Homo sapiens, UniProt P35462). Kind of assay: Radioligand binding assay, dopaminergic D3 receptors. To be noted: test compound 1×10^−6 M. The gist of the method:
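Scintillation read-out. Specific = total − nonspecific (excess cold ligand). Data as % of control specific binding / % inhibition; IC50 by Hill fit; Ki = IC50/(1+L/KD), KD from Scatchard plot.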

In assay [5] the target is T4, 5-HT7 receptor (Homo sapiens, UniProt P34969).
T4 construct: purchased PerkinElmer
T4 sequence (P34969 whole entry): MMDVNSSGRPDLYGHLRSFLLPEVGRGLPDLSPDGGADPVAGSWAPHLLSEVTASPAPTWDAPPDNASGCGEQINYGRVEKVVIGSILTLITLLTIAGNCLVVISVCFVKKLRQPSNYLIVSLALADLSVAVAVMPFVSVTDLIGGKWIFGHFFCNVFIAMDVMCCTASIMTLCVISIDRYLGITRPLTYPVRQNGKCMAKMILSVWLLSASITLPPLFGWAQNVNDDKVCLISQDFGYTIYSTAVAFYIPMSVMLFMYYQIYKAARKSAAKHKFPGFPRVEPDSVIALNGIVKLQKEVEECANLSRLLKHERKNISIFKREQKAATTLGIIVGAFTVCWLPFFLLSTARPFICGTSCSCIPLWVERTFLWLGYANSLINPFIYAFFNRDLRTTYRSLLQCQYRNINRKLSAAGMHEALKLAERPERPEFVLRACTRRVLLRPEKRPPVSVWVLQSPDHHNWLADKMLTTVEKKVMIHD
The assay can be described thus: Radioligand binding assay, serotoninergic 5-HT7 receptors.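 Note: test compound at 1 µM.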 As to conditions: binding assay result in %, Table 5a. In short, it runs like this: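 Ki values used the Cheng–Prusoff equation, with KD from Scatchard analysis, applied to IC50 from Hill fits of human 5-HT7 radioligand competition curves. Bound radioligand was counted by scintillation, and excess unlabelled ligand set the non-specific binding.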

Assay [6] has as its target T5, serotonin transporter (SERT) (Homo sapiens, UniProt P31645).
T5 construct: expressed in transfected cells; host or cells: CHO cells
The assay can be described thus: Radioligand binding assay, serotonin transporter (SERT). To be noted: binding assay, test compound 1×10^−6 M. In short, it runs like this:
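Values are derived from competition curves fitted by the Hill equation to give IC50, then converted to Ki by Cheng-Prusoff with radioligand Kd from Scatchard analysis. Specific binding equals total minus non-specific (excess cold ligand), counted by scintillation, and is also expressed as percent inhibition of control.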

The subject of assay [7] is α1 adrenergic receptors (rat cerebral cortex). The assay can be described thus: Radioligand binding assay, adrenergic α1 receptors. To be noted: test compound 1×10^−6 M. From the text:
The specific ligand binding to the receptors is defined as the difference between the total binding and the non-specific binding determined in the presence of the excess of unlabelled ligand.
The results are expressed as a percent of control specific binding ((measured specific binding/control specific binding)×100) and as a percent inhibition of control specific binding (100−((measured specific binding/control specific binding)×100)) obtained in the presence of the test compounds. The specific ligand binding to the receptors is defined as the difference between the total binding and the nonspecific binding determined in the presence of an excess of unlabelled ligand. Scintillation counting was the method of detection of ligand binding. The IC50 values (concentration causing a half-maximal inhibition of control specific binding) were determined by non-linear regression analysis of the competition curves generated with mean replicate values using Hill equation curve fitting (Y=D+[(A−D)/(1+(C/C50)nH)], where Y=specific binding, D=minimum specific binding, A=maximum specific binding, C=compound concentration, C50=IC50, and nH=slope factor). […] The inhibition constants (Ki) were calculated using the Cheng Prusoff equation (Ki=IC50/(1+(L/KD)), where L=concentration of radioligand in the assay, and KD=affinity of the radioligand for the receptor). A scatchard plot was used to determine the Kd.

Assay [8] concerns the target dopaminergic receptors D2 (Homo sapiens, UniProt P14416). Kind of assay: Radioligand binding assay, dopaminergic D2 receptors. As to conditions: binding assay, test compound 1×10^−6 M. The gist of the method:
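Displacement of radioligand from human dopamine D2, D3 or D4.4 receptors, counted by scintillation; specific binding is total minus binding under excess unlabelled ligand. IC50 values come from Hill curve fits of percent inhibition, then converted to Ki by Cheng-Prusoff using Scatchard-derived KD.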

The source of these data is patent US20140135310A1, “SULPHONAMIDE DERIVATIVES OF ALICYCLIC AMINES FOR THE TREATMENT OF CENTRAL NERVOUS SYSTEM DISEASES” (Adamed Sp. z o.o., priority 2011, published 2014).

T5 sequence (P31645 whole entry): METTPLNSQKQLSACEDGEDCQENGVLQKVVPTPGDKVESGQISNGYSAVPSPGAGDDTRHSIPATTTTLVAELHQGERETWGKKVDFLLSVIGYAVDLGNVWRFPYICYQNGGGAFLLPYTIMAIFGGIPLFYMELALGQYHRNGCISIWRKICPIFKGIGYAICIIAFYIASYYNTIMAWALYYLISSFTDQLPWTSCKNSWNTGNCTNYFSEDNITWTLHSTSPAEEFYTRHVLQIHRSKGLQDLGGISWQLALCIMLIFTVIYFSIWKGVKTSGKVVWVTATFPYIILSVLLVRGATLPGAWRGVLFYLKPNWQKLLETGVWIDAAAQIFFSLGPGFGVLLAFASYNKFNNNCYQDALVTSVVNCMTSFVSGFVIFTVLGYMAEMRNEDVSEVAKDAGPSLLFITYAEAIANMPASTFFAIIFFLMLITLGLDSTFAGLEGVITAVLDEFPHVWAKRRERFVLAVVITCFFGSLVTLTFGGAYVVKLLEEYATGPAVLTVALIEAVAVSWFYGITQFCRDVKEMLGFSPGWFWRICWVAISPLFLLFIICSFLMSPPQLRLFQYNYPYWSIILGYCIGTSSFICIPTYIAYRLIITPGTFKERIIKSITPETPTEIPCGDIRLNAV
T1 sequence (P28223 whole entry): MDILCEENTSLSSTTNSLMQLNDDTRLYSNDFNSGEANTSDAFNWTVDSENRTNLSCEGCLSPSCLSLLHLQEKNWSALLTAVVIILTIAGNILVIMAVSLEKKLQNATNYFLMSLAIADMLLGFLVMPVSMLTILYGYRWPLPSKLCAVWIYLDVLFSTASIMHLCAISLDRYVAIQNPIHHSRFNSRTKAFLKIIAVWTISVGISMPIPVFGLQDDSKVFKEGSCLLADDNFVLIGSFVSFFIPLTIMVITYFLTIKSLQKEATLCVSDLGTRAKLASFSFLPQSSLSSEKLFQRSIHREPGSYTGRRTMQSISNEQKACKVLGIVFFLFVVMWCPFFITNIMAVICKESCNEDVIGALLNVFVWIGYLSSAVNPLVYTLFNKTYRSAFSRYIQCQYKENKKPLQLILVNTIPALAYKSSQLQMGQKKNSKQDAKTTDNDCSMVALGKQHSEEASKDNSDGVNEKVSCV
Chain of dopaminergic receptors D2 (P14416 whole entry): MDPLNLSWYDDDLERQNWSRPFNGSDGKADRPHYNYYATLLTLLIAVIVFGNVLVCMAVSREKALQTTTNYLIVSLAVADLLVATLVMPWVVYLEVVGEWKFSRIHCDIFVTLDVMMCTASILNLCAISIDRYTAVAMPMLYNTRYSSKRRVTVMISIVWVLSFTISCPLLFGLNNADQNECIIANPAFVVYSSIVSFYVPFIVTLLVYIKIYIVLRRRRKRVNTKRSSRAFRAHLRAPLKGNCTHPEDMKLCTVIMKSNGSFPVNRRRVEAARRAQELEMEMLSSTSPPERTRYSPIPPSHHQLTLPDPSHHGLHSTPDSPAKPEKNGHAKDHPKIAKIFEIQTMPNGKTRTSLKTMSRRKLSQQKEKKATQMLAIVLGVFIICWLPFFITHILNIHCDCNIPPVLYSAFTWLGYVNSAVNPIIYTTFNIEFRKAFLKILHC
Chain of dopaminergic receptors D3 (P35462 whole entry): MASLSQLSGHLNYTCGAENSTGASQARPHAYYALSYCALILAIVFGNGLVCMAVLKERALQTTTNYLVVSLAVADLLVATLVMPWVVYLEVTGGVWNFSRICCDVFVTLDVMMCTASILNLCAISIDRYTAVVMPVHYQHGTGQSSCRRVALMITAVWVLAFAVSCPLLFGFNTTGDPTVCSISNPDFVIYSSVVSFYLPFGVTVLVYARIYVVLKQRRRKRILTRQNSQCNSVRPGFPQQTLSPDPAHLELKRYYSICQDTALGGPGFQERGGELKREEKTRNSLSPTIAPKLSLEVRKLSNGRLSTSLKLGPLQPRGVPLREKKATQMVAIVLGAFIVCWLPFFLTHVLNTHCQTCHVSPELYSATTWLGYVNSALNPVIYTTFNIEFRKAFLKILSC

By inhibition is commonly meant the relative decrease from the control value, in per cent. On to `O=S(=O)(NCC1CN(CCOc2cccc3c2OCCO3)C1)c1ccc(F)cc1` [Compound 182, N-[[1-[2-(2,3-Dihydro-1,4-benzodioxin-5-yloxy)ethyl]azetidin-3-yl]methyl]-4-fluoro-benzenesulphonamide], for which the inhibition at 1 µM was 61% in assay [1]; 31% in assay [2]; 63% in assay [3]; 45% in assay [4]; 95% in assay [5]; -7% in assay [6]. Moreover, the inhibition at 1 µM in assay [8] was found to be 33%. In addition, the “α1 [%]” value in assay [7] came to 78%.
On to `O=S(=O)(NC1CCN(CCOc2cccc3c2OCCO3)C1)c1ccc2ccccc2c1` (stereo not drawn) [Compound 99, N-[1-[2-(2,3-Dihydro-1,4-benzodioxan-8-yloxy)ethyl]pyrrolidin-3-yl]-naphthalene-2-sulphonamide], for which, in assay [1], the “5-HT2A [%]” value was determined as 97%. The “5-HT6 [%]” value in assay [2] stood at 64%. Besides, in assay [3], the “5-HT1A [%]” value is 96%. Further, the “D3 [%]” value in assay [4] turned out to be 78%. For the same compound, the “5-HT7 [%]” value in assay [5] is recorded as 90%. Further, the “SERT [%]” value in assay [6] is given as 36%. The “α1 [%]” value in assay [7] is 70%. Moreover, the “D2 [%]” value in assay [8] stood at 38%.
On to `Cc1cccc(S(=O)(=O)NC2CCN(CCOc3cccc4c3OCCO4)C2)c1` (stereo not drawn) [Compound 97, N-[1-[2-(2,3-Dihydro-1,4-benzodioxan-8-yloxy)ethyl]pyrrolidin-3-yl]-3-methylbenzenesulphonamide], for which the “5-HT2A [%]” value in assay [1] was 89%. Moreover, the “5-HT6 [%]” value in assay [2] stood at 43%. Moreover, the “5-HT1A [%]” value in assay [3] is given as 84%. Also, in assay [4], the “D3 [%]” value is reported as 40%. The “5-HT7 [%]” value in assay [5] amounted to 105%. Further, the “SERT [%]” value in assay [6] is given as −1%. Moreover, the “α1 [%]” value in assay [7] worked out at 64%. Also, the “D2 [%]” value in assay [8] turned out to be 29%.
`O=S(=O)(NC1CCN(CCCc2c[nH]c3ccc(Cl)cc23)C1)c1ccc2ccccc2c1` (stereo not drawn) [Compound 87, N-[1-[3-(5-Chloro-1H-indol-3-yl)propyl]pyrrolidin-3-yl]naphthalene-2-sulphonamide]: the inhibition at 1 µM in assay [1] came to 78%; in assay [2], 91%; in assay [3] it was 105%; in assay [4] it was 86%; in assay [5], 71%; in assay [6] it was 64%. Moreover, in assay [8], the inhibition at 1 µM was determined as 63%. The “α1 [%]” value in assay [7] is 18%.
Regarding `Cn1ccc2c(S(=O)(=O)NCC3CN(CCOc4cccc5ccccc45)C3)cccc21` [Compound 170, 1-Methyl-N-[[1-[2-(1-naphthyloxy)ethyl]azetidin-3-yl]methyl]indole-4-sulphonamide], the inhibition at 1 µM in assay [1] was 72%; in assay [2] it was 93%; in assay [3] it was 90%; in assay [4], 98%; in assay [5] it was 104%; in assay [6] it was 93%. In assay [8], the inhibition at 1 µM came to 79%. In addition, the “α1 [%]” value in assay [7] was found to be 63%.
In the case of `Cn1ccc2c(S(=O)(=O)NCC3CCN(CCOc4cccc5ccccc45)C3)cccc21` (stereo not drawn) [Compound 275, 1-Methyl-N-[[1-[2-(1-naphthyloxy)ethyl]pyrrolidin-3-yl]methyl]indole-4-sulphonamide], the inhibition at 1 µM in assay [1] is 91%; in assay [2], 84%; in assay [3], 86%; in assay [4], 94%; in assay [5], 111%; in assay [6], 93%. Moreover, the inhibition at 1 µM in assay [8] was 66%. Further, in assay [7], the “α1 [%]” value was 53%.
On to `O=S(=O)(NC1CCN(CCCc2noc3cc(F)ccc23)C1)c1cccc(Cl)c1` (stereo not drawn) [Compound 9, 3-Chloro-N-[1-[3-(6-fluoro-1,2-benzoxazol-3-yl)propyl]pyrrolidin-3-yl]benzenesulphonamide], for which the inhibition at 1 µM in assay [1] was 95%; in assay [2], 75%; in assay [3] it was 12%; in assay [4], 30%; in assay [5], 90%; in assay [6], 2%. Also, the inhibition at 1 µM in assay [8] turned out to be 88%. In assay [7], the “α1 [%]” value is 83%.
With `O=S(=O)(NCC1CN(CCOc2cccc3c2OCCO3)C1)c1ccc(Cl)cc1` [Compound 179, 4-Chloro-N-[[1-[2-(2,3-dihydro-1,4-benzodioxin-5-yloxy)ethyl]azetidin-3-yl]methyl]benzenesulphonamide], the inhibition at 1 µM in assay [1] was 57%; in assay [2] it was -15%; in assay [3], 92%; in assay [4], 40%; in assay [5], 90%; in assay [6] it was -8%. In addition, in assay [8], the inhibition at 1 µM was found to be 6%. For the same compound, the “α1 [%]” value in assay [7] is 61%.
On to `O=S(=O)(NC1CN(CCOc2cccc3c2OCCO3)C1)c1ccccc1` [Compound 88, N-[1-[2-(2,3-Dihydro-1,4-benzodioxan-8-yloxy)ethyl]azetidin-3-yl]-benzenesulphonamide], for which the “5-HT2A [%]” value in assay [1] is 34%. Also, in assay [2], the “5-HT6 [%]” value stood at 13%. Besides, in assay [3], the “5-HT1A [%]” value stood at 96%. Moreover, the “D3 [%]” value in assay [4] was −2%. In assay [5], the “5-HT7 [%]” value is on record as 84%. Also, the “SERT [%]” value in assay [6] was −13%. Besides, in assay [7], the “α1 [%]” value was −23%. Moreover, the “D2 [%]” value in assay [8] is −5%.
Take `O=S(=O)(NC1CCN(CCOc2cccc3c2OCCO3)CC1)c1ccccc1` [Compound 117, N-[1-[2-(2,3-Dihydro-1,4-benzodioxan-8-yloxy)ethyl]-4-piperidine]-benzenesulphonamide]: in assay [1], the “5-HT2A [%]” value is 86%. Also, the “5-HT6 [%]” value in assay [2] is given as 34%. The “5-HT1A [%]” value in assay [3] is given as 76%. For the same compound, the “D3 [%]” value in assay [4] is 29%. The “5-HT7 [%]” value in assay [5] is given as 93%. In addition, in assay [6], the “SERT [%]” value is recorded as 33%. In addition, in assay [7], the “α1 [%]” value was determined as 53%. Moreover, the “D2 [%]” value in assay [8] came to 24%.
Take `O=S(=O)(NC1CN(CCOc2cccc3[nH]ccc23)C1)c1ccccc1` [Compound 45, N-[1-[2-(1H-indol-4-yloxy)ethyl]azetidin-3-yl]benzenesulphonamide]: the inhibition at 1 µM in assay [1] was 75%; in assay [2] it was 0%; in assay [3], 88%; in assay [4] it was 87%; in assay [5], 93%; in assay [6], -4%. For the same compound, the inhibition at 1 µM in assay [8] came out at 53%. In addition, the “α1 [%]” value in assay [7] was found to be 72%.
Consider `Cn1ccc2cc(S(=O)(=O)NCC3CN(CCOc4cccc5ccccc45)C3)ccc21` [Compound 169, 1-Methyl-N-[[1-[2-(1-naphthyloxy)ethyl]azetidin-3-yl]methyl]indole-5-sulphonamide], for which the inhibition at 1 µM is 69% in assay [1]; 100% in assay [2]; 84% in assay [3]; 100% in assay [4]; 93% in assay [5]; 75% in assay [6]. Moreover, the inhibition at 1 µM in assay [8] is 84%. In addition, in assay [7], the “α1 [%]” value turned out to be 74%.
